We go through one molecule from US20050170019A1, “Methods, compositions and devices for inducing stasis in cells” (Fred Hutchinson Cancer Research Center, priority 2003, published 2005).

The test system of data set [1] is humans. As to conditions: cited from earlier work.
The subject of data set [2] is C. elegans embryos. Briefly: Cell biological analysis: arrest of embryogenesis (suspended animation) in carbon monoxide-based atmospheres. The class given is in vivo. The text has this:
(§1) To test whether induced, reversible stasis could be achieved in C. elegans nematodes, 2-cell C. elegans embryos, L3 larvae or adult nematodes were collected and exposed to either an environment of effectively 100% CO, an environment of 100% N2, an environment comprising 500 ppm oxygen balanced with carbon monoxide, or to environments comprising 100, 500 or 1000 ppm oxygen balanced with nitrogen at room temperature. Nematodes were visualized using differential interference contrast microscopy (also known as Nomarski optics). Images were collected and analyzed using NIH image and Adobe Photoshop 5.5. Embryos are approximately 50 μm in length.
Cell biological analysis. To determine the extent of developmental progression in nitrogen-based atmospheres (Table 2), 2-cell embryos were exposed to various degrees of hypoxia as described above and were either immediately photographed, or photographed following a 12 hr recovery period in a humid chamber. To determine whether embryos arrested in carbon monoxide-based atmospheres, 2-cell embryos were aged in room air for two hours and were either photographed immediately or put into 100% carbon monoxide or 0.05 kPa O2/CO for 24 hours and photographed immediately following the exposure. In all cases, DIC microscopy was done by placing embryos under a cover slip on a thin 1% agarose pad and viewing on a Zeiss axioscope. Photographs were taken using RS Image and Adobe Photoshop software.

In data set [3] the test system is C. elegans embryos. In words: Viability of nematodes in carbon monoxide based atmospheres. The class given is in vivo. As to conditions: for viability (survival) to adulthood: 0.25 kPa O2/CO.
Source text: To achieve specific atmospheric conditions the following apparatus was used: a glass syringe barrel having a tip with a locking device such as a LUER-LOK with the large opening of the barrel sealed with a custom-machined steel and rubber fitting to make an airtight seal was locked to via locking device to the inlet port of an environmental chamber having an inlet and an outlet port each fitted with a locking devices such as a LUER-LOK fitting. A defined gas was humidified and provided to the environmental chamber by first venting the gas from a compressed tank (Byrne Specialty Gas, Seattle, Wash.) through a gas washing bottle (500 ml Kimex) filled with double distilled water. The gas washing bottle was connected to the environmental chamber past a gas-flow meter. A gas flow meter was used to provide a regulated 70 cc/min flow through the environmental chamber throughout the 24 hr incubation.
as §1
Environmental chambers and apparatuses. Oxygen deprivation experiments were carried out using a custom atmospheric chamber designed by W. Van Voorhies (Van Voorhies et al., 2000). The chamber is a 30 mL glass syringe (Fisher #14-825-10B) fitted with a custom steel stopper that is lined with two viton o-rings to ensure a tight seal. The stopper is bored through and has a steel lure lock on the exterior face so that a hose carrying compressed gas can be attached. A defined gas mixture is delivered to the chamber at a constant pressure and flow rate from compressed tanks by passing first through a rotometer (Aalborg, flow-tube number 032-41ST) or mass flow controller (Sierra Instruments #810) to monitor flow rate and then through a 500 ml gas washing bottle (Fisher #K28220-5001) containing 250 ml water to hydrate the gas. ¼” OD nylon (Cole-Parmer #P-06489-06) or FEP (Cole-Parmer #A-06450-05) tubing was used and connections between tubing and the regulators and between the tubing and the rotometers were made with brass John-Guest-type fittings (Byrne Gas). All other connections were made with either microflow quick-connect fittings (Cole-Parmer #A-06363-57, #A-06363-52) or standard lure fittings (Cole-Parmer #A-06359-37, #A-06359-17).
Viability of nematodes in hypoxia. […] Log-phase, adult C. elegans were picked into a drop of sterile water containing 100 μg/ml ampicillin, 15 μg/ml tetracycline and 200 μg/ml streptomycin on a glass plate. Adults were chopped with a razor blade and 2-cell embryos were picked using a mouth pipet. 30-60 2-cell embryos were transferred to a small glass boat (custom made to fit atmospheric chambers, Avalon Glass Works, Seattle Wash.) filled with 3 ml of 1% agarose in M9. Boats were then placed into a humid chamber for 2 hours to allow the embryos to age and then placed into the environmental chamber. The environmental chambers were continuously perfused at room temperature with either pure N2 (grade 4.5), 100 ppm O2/N2, 500 ppm O2/N2, 1000 ppm O2/N2, or 5000 ppm O2/N2 at 70 cc/min for 24 hrs. Following exposure, agarose chunks containing the embryos were cut out of the boat and placed with embryos facing up onto a medium-sized NGM plate seeded with E. coli (OP50). Embryos were scored for hatching 24 hours after exposure and hatched L1's were transferred to the surface of the NGM plate and followed to adulthood. Animals that could not be accounted for were dropped from the total. […]

Data set [4] deals with human keratinocytes. In words: Preservation of human skin in carbon monoxide: keratinocyte growth and colony formation. Format: cell-based. The method, then: Three human foreskins were obtained for this purpose. The foreskin tissue was preserved in keratinocyte growth medium (KGM) containing insulin, EGF (0.1 ng/ml), hydrocortisone ([…]) and bovine pituitary extract (approx. 50 micrograms/ml of protein). Foreskins were rinsed in PBS, and excess fatty tissue was removed. Each foreskin sample was divided into 2 equal pieces. Each piece was placed into a separate container containing a solution of PBS with 24 mg/ml of Dispase II (from Bacillus Polymyxa EC 3.4.24.4:Roche Diagnostics Corp., Indianapolis, Ind.). One container (containing a foreskin piece in PBS with Dispase II) was kept in a humid chamber in a fume hood. The other container (with the other half of the foreskin in PBS with Dispase II) was placed in the same fume hood in an environmental chamber perfused with humidified 100% CO. Both samples were maintained at room temperature for 24 hrs. Methods used to establish defined atmospheric conditions were identical to those used in Example 1.
Following the 24 hr exposure to normoxia or 100% CO, keratinocytes were isolated from the foreskins according to the method described by Boyce et al. (1983; 1985; each of which is incorporated herein by reference in its entirety). Briefly, the epidermis from each foreskin sample was removed to a fresh dish containing PBS. The epidermis was minced and homogenized prior to incubation in 3 ml of 0.05% Trypsin, 1 mM EDTA for 5 minutes, at room temperature, to separate basal cells from the epidermis. After incubation, 6 ml of 400 μg/ml (micrograms per ml) Soybean Trypsin Inhibitor, 1 mg/ml BSA was added and the samples were centrifuged at 900 RPM. The supernatant from each sample was discarded and the sample pellets were resuspended in 10 ml of KGM. Each sample was split into two 10 cm plates each of which contained 5 ml KGM and 100 μl of HEPES pH 7.3 (N-2-hydroxyethylpiperazine-N′-2-ethane sulfonic acid). The plates were incubated in a 37° C. incubator perfused with 95% room air, 5% carbon dioxide for five days.
Cells were inspected visually using an inverted phase contrast microscope. […] Quantitation of the number of viable keratinocytes as judged by colony formation was quantified for two of the three foreskins.

Molecules are shown by their SMILES. Like-named read-outs stand apart in the source and are kept apart here.

With `[C-]#[O+]` [carbon monoxide], the symptoms result was “no symptoms” in data set [1] (50 parts per million (ppm)); “slight headache” in data set [1] (200 ppm, within two-three hours); “frontal headache” in data set [1] (400 ppm, within one to two hours); “dizziness, nausea, and/or convulsions within 45 minutes, and render the subject insensible within two hours” in data set [1] (800 ppm). Further, the lethality result in data set [1] (around 1000 ppm, exposure for more than around 1-2 minutes, an organism) is reported as “can expire”; in data set [3] (nematodes, 100% carbon monoxide, room temperature, 24 hr), “not lethal”. Also, the embryogenesis during exposure result in data set [2] (embryos, 0.05 kPa O2 balanced with carbon monoxide) was “arrested embryogenesis”. In addition, in data set [2] (embryos, 101 kPa CO), the “progression through embryogenesis during exposure” value was “did not progress through embryogenesis”. For the same molecule, the “induction of suspended animation” value in data set [2] (nematodes, 100% carbon monoxide) is “induced reversible suspended animation”. In data set [2] (wild-type and hif-1(ia04) embryos, 0.25 kPa O2 balanced with carbon monoxide), the suspended animation entry is given as “entered into suspended animation”. Further, the “viability (survival) to adulthood” value in data set [3] (N2 (wild-type) embryos, 24 hrs) is 78.7%; in data set [3] (N2 (wild-type) embryos, 24 hrs, listed as CO), 78.7% ± 21.9; in data set [3] (hif-1(ia04) embryos, 24 hrs) it was 84.0%; in data set [3] (hif-1(ia04) embryos, 24 hrs, listed as CO) it was 83.9% ± 13.8. This molecule also yielded a viability to adulthood in data set [3] (embryos, 0.05 kPa O2 balanced with carbon monoxide, 24 hours) of 96.2%. In addition, the survival to adulthood in data set [3] (embryos, 101 kPa CO (100% CO), 24 hrs) turned out to be 81.5%. Further, the “suspended animation and survival” value in data set [3] (nematodes, 500 ppm oxygen balanced with carbon monoxide) is “entered into suspended animation and survived”. The “protection against hypoxia (FIG. 3)” value in data set [3] (wild-type embryos, 24 hours, 0.05 kPa O2/CO versus 0.05 kPa O2/N2) is “protects against hypoxia”. Further, the Total colonies in data set [4] (Foreskin 1, 100% CO 24 hrs) is recorded as 542 colonies (many of which were very; in data set [4] (Foreskin 2, 100% CO 24 hrs), 780 colonies (many of which were very. Further, the “survival of human keratinocytes (FIG. 1)” value in data set [4] (exposure to 100% CO) was “survive”. In addition, in data set [4] (human skin, 100% CO, after 24 hrs), the “survival of skin cells in CO relative to room air” value came out at 100 fold. Moreover, the “growth of keratinocyte populations (visual inspection)” value in data set [4] (three foreskins, 24 hr 100% CO at room temperature, then five days culture) is reported as “significant growth”.
